Measured values reported in patent US12083105B2, “Compositions and methods for treating adult-onset neuronal ceroid lipofuscinosis (Kufs disease)” (CORNELL UNIVERSITY, priority 2020, dated 2024).

Tests used:
SNAP-25 = test: Total SNAP-25 levels in ANCL iNs (quantitative immunoblotting); type: cell-based, human; details: 72 h, compared to vehicle only control, FIG. 7B
Description: (§1) ANCL patient-derived fibroblasts were treated with 200 μM of L1 or Dfx, or vehicle (0.1% DMSO=Control) for 72 h, before measuring the UV-Vis absorbance spectra of immunoprecipitated CSPα eluted by trypsinization (solid lines). Spectra were re-read after 10 min of 0.1 N HCl treatment (dashed lines). The experiments shown in FIGS. 7B-7I, were conducted using ANCL fibroblasts converted to iNs using BAM+ND1 technique. […] Quantitative immunoblotting was used to measure levels of oligomerized and fully palmitoylated CSPα as well as total SNAP-25. Oligo=oligomers; Palm=palmitoylated. […] The interaction of CSPα with SNAP-25 in ANCL iNs was measured by immunoprecipitating SNAP-25 followed by quantitative immunoblotting of co-immunoprecipitated CSPα (normalized to SNAP-25 IP). Note that mainly CSPα monomers and not oligomers were detected bound to SNAP-25. Control=control sham IP without IgG. […] Turnover of SNAP-25 was determined by cycloheximide chase, while maintaining the iron-chelators or vehicle in the medium. […] In the experiments shown in FIGS. 7E-7G, ANCL iNs treated with L1, Dfx, or vehicle for 56 d and analyzed. […] The levels of lipofuscin were determined by ELISA. In the experiments shown in FIGS. 7H-7I 56 day old untreated ANCL iNs were treated with L1, Dfx, or vehicle, and analyzed. […]

ANCL iNs = test: Lipofuscin autofluorescence in ANCL iNs; type: cell-based, human; details: ANCL iNs treated for 56 d from iN conversion (prevention); compared to control; FIG. 7E
Description: as §1, with “SNAP-25.” for “SNAP-25. Control=control sham IP without IgG.”
Effect of iron chelators on the accumulation of lipofuscin was monitored by ELISA for lipofuscin or based on lipofuscin autofluorescence. […]

Compound	SNAP-25 levels (SNAP-25)	lipofuscin autofluorescence (ANCL iNs)
CC(=O)N(O)CCCCCNC(=O)CCC(=O)N(O)CCCCCNC(=O)CCC(=O)N(O)CCCCCN [Dfx, N′-[5-(Acetyl-hydroxy-amino)pentyl]-N-[5-[3-(5-aminopentyl-hydroxy-carbamoyl)propanoylamino]pentyl]-N-hydroxy-butane diamide]	augmented	reduced
Cc1c(O)c(=O)ccn1C [L1, 3-hydroxy-1,2-dimethyl-4(1H)-pyridone]	augmented	reduced
